Data as given in US12391648B2, “Pyridyloxy thioester derivative and preparation method therefor, herbicidal composition, and application” (Qingdao Kingagroot Chemical Compound Co., Ltd., priority 2018, dated 2025).

Columns and labels:
Assay in all cases: Post-emergence test experiment (Table 3, 1000 g/ha)
Type in all cases: in vivo
Details in all cases: post-emergence spray, after 3 weeks, fresh weight inhibition
Abutilon theophrasti = tested on: Abutilon theophrasti
Outline: (§1)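 Weed seeds sown in soil-filled pots in greenhouse, sprayed at 2-3 leaf stage (2 weeks after sowing) with compound in acetone/tween-80 plus methyl oleate emulsible concentrate (1.5 L/ha) diluted in water. Fresh-weight growth inhibition scored after 3 weeks on 0-5 scale (5: >85%, 0: <5%).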

Digitaria sanguinalis = tested on: Digitaria sanguinalis
Outline: as §1

Galium spurium = tested on: Galium spurium
Outline: as §1

Leptochloa chinensis = tested on: Leptochloa chinensis
Outline: as §1

Monochoria vaginalis = tested on: Monochoria vaginalis
Outline: as §1

Setaria viridis = tested on: Setaria viridis
Outline: as §1

Compound	Activity level (growth inhibition rate) Abutilon theophrasti (Abutilon theophrasti)	Activity level (growth inhibition rate) Digitaria sanguinalis (Digitaria sanguinalis)	Activity level (growth inhibition rate) Galium spurium (Galium spurium)	Activity level (growth inhibition rate) Leptochloa chinensis (Leptochloa chinensis)	Activity level (growth inhibition rate) Monochoria Vaginalis (Monochoria vaginalis)	Activity level (growth inhibition rate) Setaria viridis (Setaria viridis)
COCCSC(=O)C(C)Oc1nc(F)c(Cl)c(N)c1Cl (stereo not drawn) [Compound 85]	5 (Level 5: the growth inhibition rate is greater than 85%)	5 (Level 5: the growth inhibition rate is greater than 85%)	5 (Level 5: the growth inhibition rate is greater than 85%)	5 (Level 5: the growth inhibition rate is greater than 85%)	5 (Level 5: the growth inhibition rate is greater than 85%)	5 (Level 5: the growth inhibition rate is greater than 85%)
CCOCSC(=O)C(C)Oc1nc(F)c(Cl)c(N)c1Cl (stereo not drawn) [Compound 86]	5 (Level 5: the growth inhibition rate is greater than 85%)	5 (Level 5: the growth inhibition rate is greater than 85%)	5 (Level 5: the growth inhibition rate is greater than 85%)	5 (Level 5: the growth inhibition rate is greater than 85%)	5 (Level 5: the growth inhibition rate is greater than 85%)	5 (Level 5: the growth inhibition rate is greater than 85%)
C=CCSC(=O)C(C)Oc1nc(F)c(Cl)c(N)c1Cl (stereo not drawn) [Compound 89]	5 (Level 5: the growth inhibition rate is greater than 85%)	5 (Level 5: the growth inhibition rate is greater than 85%)	5 (Level 5: the growth inhibition rate is greater than 85%)	5 (Level 5: the growth inhibition rate is greater than 85%)	5 (Level 5: the growth inhibition rate is greater than 85%)	5 (Level 5: the growth inhibition rate is greater than 85%)
C#CCSC(=O)C(C)Oc1nc(F)c(Cl)c(N)c1Cl (stereo not drawn) [Compound 90]	5 (Level 5: the growth inhibition rate is greater than 85%)	5 (Level 5: the growth inhibition rate is greater than 85%)	5 (Level 5: the growth inhibition rate is greater than 85%)	5 (Level 5: the growth inhibition rate is greater than 85%)	5 (Level 5: the growth inhibition rate is greater than 85%)	5 (Level 5: the growth inhibition rate is greater than 85%)
CC(Oc1nc(F)c(Cl)c(N)c1Cl)C(=O)SC/C=C/Cl (stereo not drawn) [Compound 91]	5 (Level 5: the growth inhibition rate is greater than 85%)	5 (Level 5: the growth inhibition rate is greater than 85%)	5 (Level 5: the growth inhibition rate is greater than 85%)	5 (Level 5: the growth inhibition rate is greater than 85%)	5 (Level 5: the growth inhibition rate is greater than 85%)	5 (Level 5: the growth inhibition rate is greater than 85%)
CC(Oc1nc(F)c(Cl)c(N)c1Cl)C(=O)SCC(Cl)=C(Cl)Cl (stereo not drawn) [Compound 92]	5 (Level 5: the growth inhibition rate is greater than 85%)	5 (Level 5: the growth inhibition rate is greater than 85%)	5 (Level 5: the growth inhibition rate is greater than 85%)	5 (Level 5: the growth inhibition rate is greater than 85%)	5 (Level 5: the growth inhibition rate is greater than 85%)	5 (Level 5: the growth inhibition rate is greater than 85%)
COC(=O)CSC(=O)C(C)Oc1nc(F)c(Cl)c(N)c1Cl (stereo not drawn) [Compound 93]	5 (Level 5: the growth inhibition rate is greater than 85%)	5 (Level 5: the growth inhibition rate is greater than 85%)	5 (Level 5: the growth inhibition rate is greater than 85%)	5 (Level 5: the growth inhibition rate is greater than 85%)	5 (Level 5: the growth inhibition rate is greater than 85%)	5 (Level 5: the growth inhibition rate is greater than 85%)
CCOC(=O)CSC(=O)C(C)Oc1nc(F)c(Cl)c(N)c1Cl (stereo not drawn) [Compound 94]	5 (Level 5: the growth inhibition rate is greater than 85%)	5 (Level 5: the growth inhibition rate is greater than 85%)	5 (Level 5: the growth inhibition rate is greater than 85%)	5 (Level 5: the growth inhibition rate is greater than 85%)	5 (Level 5: the growth inhibition rate is greater than 85%)	5 (Level 5: the growth inhibition rate is greater than 85%)
COC(=O)C(C)SC(=O)C(C)Oc1nc(F)c(Cl)c(N)c1Cl (stereo not drawn) [Compound 95]	5 (Level 5: the growth inhibition rate is greater than 85%)	5 (Level 5: the growth inhibition rate is greater than 85%)	5 (Level 5: the growth inhibition rate is greater than 85%)	5 (Level 5: the growth inhibition rate is greater than 85%)	5 (Level 5: the growth inhibition rate is greater than 85%)	5 (Level 5: the growth inhibition rate is greater than 85%)
C=CCOC(=O)C(C)(C)SC(=O)C(C)Oc1nc(F)c(Cl)c(N)c1Cl (stereo not drawn) [Compound 96]	5 (Level 5: the growth inhibition rate is greater than 85%)	5 (Level 5: the growth inhibition rate is greater than 85%)	5 (Level 5: the growth inhibition rate is greater than 85%)	5 (Level 5: the growth inhibition rate is greater than 85%)	5 (Level 5: the growth inhibition rate is greater than 85%)	5 (Level 5: the growth inhibition rate is greater than 85%)
